Data as given in the supplement of paper PMC10307832.

Assays:
Experiment in all cases: relative viability (nuclei count vs DMSO), 5 days (fraction); higher = more cells survive
[1] = compound: CC1=C(C(=NN1)C)CC2=C(C3=C(S2)N(C(=O)N(C3=O)C)CC(C)C)C(=O)N4C[C@@H](CO4)O + CC1(C)CCC(c2ccc(Cl)cc2)=C(CN2CCN(c3ccc(C(=O)NS(=O)(=O)c4ccc(N[C@H](CCN5CCOCC5)CSc5ccccc5)c(S(=O)(=O)C(F)(F)F)c4)cc3)CC2)C1 [Navitoclax] (partner 0.5 µM)
Summary of the method: (§1)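 Lung cancer cell lines, seeded in 1536-well plates, were treated the following day by pin tool with a single drug or with five library-drug doses (not always all listed) in √10 steps on top of a fixed anchor-drug dose. Cells were fixed and nuclei stained in one step after 5 days, and nuclei were counted. Relative viability is the nuclei count for treated wells divided by that for vehicle wells, reported as medians of duplicate plates.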

IDH-C35 + Crizotinib = compound: Cc1ccccc1C(C(=O)NC1CCCCC1)N(C(=O)Cn1ccnc1C)c1cccc(F)c1 [IDH-C35] + C[C@@H](Oc1cc(-c2cnn(C3CCNCC3)c2)cnc1N)c1c(Cl)ccc(F)c1Cl [Crizotinib] (partner 1 µM)
Summary of the method: as §1

IDH-C35 + Linsitinib = compound: Cc1ccccc1C(C(=O)NC1CCCCC1)N(C(=O)Cn1ccnc1C)c1cccc(F)c1 [IDH-C35] + C[C@]1(O)C[C@@H](c2nc(-c3ccc4ccc(-c5ccccc5)nc4c3)c3c(N)nccn32)C1 [Linsitinib] (partner 1 µM)
Summary of the method: as §1

[2] = compound: CC1=C(C(=NN1)C)CC2=C(C3=C(S2)N(C(=O)N(C3=O)C)CC(C)C)C(=O)N4C[C@@H](CO4)O + CC(=O)c1c(C)c2cnc(Nc3ccc(N4CCNCC4)cn3)nc2n(C2CCCC2)c1=O [Palbociclib] (partner 0.5 µM)
Summary of the method: as §1

| Cell Line | relative viability ([1]; first compound 0.0025 µM) | relative viability ([1]; first compound 0.007906 µM) | relative viability ([1]; first compound 0.025 µM) | relative viability ([1]; first compound 0.07906 µM) | relative viability ([1]; first compound 0.25 µM) | relative viability (IDH-C35 + Crizotinib; first compound 0.08 µM) | relative viability (IDH-C35 + Crizotinib; first compound 0.253 µM) | relative viability (IDH-C35 + Crizotinib; first compound 0.8 µM) | relative viability (IDH-C35 + Crizotinib; first compound 2.53 µM) | relative viability (IDH-C35 + Crizotinib; first compound 8 µM) | relative viability (IDH-C35 + Linsitinib; first compound 0.08 µM) | relative viability (IDH-C35 + Linsitinib; first compound 0.253 µM) | relative viability (IDH-C35 + Linsitinib; first compound 0.8 µM) | relative viability (IDH-C35 + Linsitinib; first compound 2.53 µM) | relative viability (IDH-C35 + Linsitinib; first compound 8 µM) | relative viability ([2]; first compound 0.0025 µM) | relative viability ([2]; first compound 0.007906 µM) | relative viability ([2]; first compound 0.025 µM) | relative viability ([2]; first compound 0.07906 µM) | relative viability ([2]; first compound 0.25 µM) |
| --- | --- | --- | --- | --- | --- | --- | --- | --- | --- | --- | --- | --- | --- | --- | --- | --- | --- | --- | --- | --- |
| 201T | 1.22 | 1.22 | 1.17 | 1.14 | 1.21 | 1.03 | 1.02 | 0.982 | 0.999 | 0.997 | 1.03 | 1.06 | 1.01 | 0.992 | 0.955 | 0.358 | 0.355 | 0.369 | 0.327 | 0.367 |
| A549 | 1.32 | 1.27 | 1.14 | 1.32 | 1.24 | 0.819 | 0.794 | 0.814 | 0.669 | 0.744 | 0.624 | 0.55 | 0.504 | 0.502 | 0.585 | – | – | – | – | – |
| A-427 | 1.01 | 0.948 | 0.889 | 0.886 | 1.16 | 0.907 | 0.983 | 0.849 | 0.891 | 0.791 | 1.13 | 1.17 | 1.07 | 1.1 | 1.18 | 0.524 | 0.514 | 0.515 | 0.548 | 0.578 |
| ABC-1 | – | – | – | – | – | 0.876 | 1.21 | 1.3 | 1.15 | 1.09 | 0.898 | 0.856 | 0.913 | 0.767 | 0.746 | 0.72 | 0.445 | – | 0.638 | 0.729 |
| BEN | 0.0618 | 0.0913 | 0.0867 | 0.0968 | 0.0771 | 0.932 | 0.738 | 0.803 | 0.942 | 0.861 | 0.831 | 0.899 | 0.813 | 0.906 | 0.99 | 0.448 | 0.484 | 0.471 | 0.423 | 0.502 |
| CAL-12T | 1.27 | 1.39 | 1.03 | 1.37 | 1.33 | 0.556 | 0.792 | 0.682 | 0.603 | 0.603 | 0.841 | 0.826 | 0.779 | 0.733 | 0.826 | 0.481 | 0.413 | 0.484 | 0.574 | 0.418 |
| COR-L23 | 0.783 | 0.984 | 0.777 | 0.781 | 0.845 | 0.634 | 0.626 | 0.619 | 0.673 | 0.667 | 0.828 | 0.896 | 0.913 | 0.889 | 0.886 | 0.291 | 0.266 | 0.238 | 0.245 | 0.318 |
| COR-L 105 | 0.969 | 0.768 | 0.682 | 0.561 | 0.657 | 0.745 | 0.942 | 0.688 | 0.72 | 0.921 | 1.01 | 1.24 | 0.854 | 1.01 | 0.836 | 0.433 | 0.423 | 0.395 | 0.403 | 0.383 |
| Calu-6 | 0.925 | 0.827 | 0.805 | 0.906 | 0.892 | 0.765 | 0.745 | 0.804 | 0.833 | 0.742 | 0.993 | 0.928 | 0.961 | 0.932 | 0.88 | – | – | – | – | – |
| ChaGo-K-1 | 0.996 | 0.903 | – | 1.21 | 1.5 | 1.16 | 1.05 | 1.09 | 0.923 | 1.09 | – | – | – | – | – | 0.956 | 0.937 | 0.943 | 0.878 | 0.931 |
| EBC-1 | 0.473 | 0.426 | 0.485 | 0.498 | 0.494 | 0.181 | 0.187 | 0.168 | 0.194 | 0.161 | 1.04 | 0.949 | 1.02 | 0.867 | 0.852 | – | – | – | – | – |
| EKVX | 1 | 1.04 | 0.988 | 0.907 | 0.933 | 0.953 | 0.74 | 0.688 | 0.935 | 1.08 | 1.05 | 1.09 | 0.957 | 0.988 | 1.01 | 0.475 | 0.44 | 0.417 | 0.368 | 0.39 |
| EMC-BAC-2 | 1.16 | 1.14 | 1.16 | 1.16 | 1.38 | 0.809 | 0.731 | 0.744 | 0.713 | 0.743 | 0.797 | 0.799 | 0.798 | 0.777 | 0.812 | 0.549 | 0.543 | 0.499 | 0.569 | 0.549 |
| EPLC-272H | 1.17 | 1.26 | 1.07 | 1.08 | 1.28 | 1.09 | 0.805 | 0.855 | – | 1.03 | 1.12 | 1.31 | 1.08 | – | 1.25 | 0.322 | 0.315 | 0.319 | 0.324 | 0.331 |
| H3255 | 0.562 | 0.542 | 0.516 | 0.487 | 0.568 | 0.898 | 0.9 | 0.897 | 0.773 | 0.848 | 0.981 | 0.915 | 1.01 | 0.877 | 0.881 | 0.32 | 0.326 | 0.269 | 0.296 | 0.315 |
| HARA | 1.26 | 1.2 | 1.07 | 1.1 | 1.15 | 1.02 | 0.986 | 0.997 | 1.09 | 1.05 | 0.993 | 0.933 | 1.04 | 0.988 | 0.907 | 0.308 | 0.199 | 0.28 | 0.247 | 0.264 |
| HCC-15 | 0.735 | 0.725 | 0.712 | 0.698 | 0.675 | 0.854 | 0.804 | 0.802 | 0.814 | 0.731 | 0.866 | 0.828 | 0.788 | 0.835 | 0.764 | 0.788 | 0.77 | 0.726 | 0.727 | 0.788 |
